From ChEMBL document CHEMBL4627246, “Pyroglutamide-Based P2X7 Receptor Antagonists Targeting Inflammatory Bowel Disease” (J Med Chem, 2020)

system: HOP-92; test: Cytotoxicity against human HOP92 cells assessed as effect on cell growth at 10 uM incubated for 48 hrs by sulforhodamine B assay; type: cell-based; conditions: hop-92, 48 h

| Structure (SMILES) | Activity |
| --- | --- |
| O=C(NCc1ccccc1)[C@@H]1CCC(=O)N1Cc1ccc(Cl)cc1Cl | Non-Toxic |
| O=C(NCc1ccccc1Cl)[C@@H]1CCC(=O)N1Cc1ccccc1Cl | Non-Toxic |
| O=C(NCc1ccccc1Cl)[C@@H]1CCC(=O)N1c1ccccc1 | Non-Toxic |

system: NCI-H23; test: Cytotoxicity against human NCI-H23 cells assessed as effect on cell growth at 10 uM incubated for 48 hrs by sulforhodamine B assay; type: cell-based; conditions: nci-h23, 48 h

| Structure (SMILES) | Activity |
| --- | --- |
| O=C(NCc1ccccc1)[C@@H]1CCC(=O)N1Cc1ccc(Cl)cc1Cl | Non-Toxic |
| O=C(NCc1ccccc1Cl)[C@@H]1CCC(=O)N1Cc1ccccc1Cl | Non-Toxic |
| O=C(NCc1ccccc1Cl)[C@@H]1CCC(=O)N1c1ccccc1 | Non-Toxic |

system: NCI-H322M; test: Cytotoxicity against human NCI-H322M cells assessed as effect on cell growth at 10 uM incubated for 48 hrs by sulforhodamine B assay; type: cell-based; conditions: not given

| Structure (SMILES) | Activity |
| --- | --- |
| O=C(NCc1ccccc1)[C@@H]1CCC(=O)N1Cc1ccc(Cl)cc1Cl | Non-Toxic |
| O=C(NCc1ccccc1Cl)[C@@H]1CCC(=O)N1Cc1ccccc1Cl | Non-Toxic |
| O=C(NCc1ccccc1Cl)[C@@H]1CCC(=O)N1c1ccccc1 | Non-Toxic |

system: NCI-H522; test: Cytotoxicity against human NCI-H522 cells assessed as effect on cell growth at 10 uM incubated for 48 hrs by sulforhodamine B assay; type: cell-based; conditions: nci-h522, 48 h

| Structure (SMILES) | Activity |
| --- | --- |
| O=C(NCc1ccccc1)[C@@H]1CCC(=O)N1Cc1ccc(Cl)cc1Cl | Non-Toxic |
| O=C(NCc1ccccc1Cl)[C@@H]1CCC(=O)N1Cc1ccccc1Cl | Non-Toxic |
| O=C(NCc1ccccc1Cl)[C@@H]1CCC(=O)N1c1ccccc1 | Non-Toxic |

system: COLO 205; test: Cytotoxicity against human COLO205 cells assessed as effect on cell growth at 10 uM incubated for 48 hrs by sulforhodamine B assay; type: cell-based; conditions: colo 205, 48 h

| Structure (SMILES) | Activity |
| --- | --- |
| O=C(NCc1ccccc1)[C@@H]1CCC(=O)N1Cc1ccc(Cl)cc1Cl | Non-Toxic |
| O=C(NCc1ccccc1Cl)[C@@H]1CCC(=O)N1Cc1ccccc1Cl | Non-Toxic |
| O=C(NCc1ccccc1Cl)[C@@H]1CCC(=O)N1c1ccccc1 | Non-Toxic |

system: HCC 2998; test: Cytotoxicity against human HCC2998 cells assessed as effect on cell growth at 10 uM incubated for 48 hrs by sulforhodamine B assay; type: cell-based; conditions: hcc 2998, 48 h

| Structure (SMILES) | Activity |
| --- | --- |
| O=C(NCc1ccccc1)[C@@H]1CCC(=O)N1Cc1ccc(Cl)cc1Cl | Non-Toxic |
| O=C(NCc1ccccc1Cl)[C@@H]1CCC(=O)N1Cc1ccccc1Cl | Non-Toxic |
| O=C(NCc1ccccc1Cl)[C@@H]1CCC(=O)N1c1ccccc1 | Non-Toxic |

system: HCT-116; test: Cytotoxicity against human HCT116 cells assessed as effect on cell growth at 10 uM incubated for 48 hrs by sulforhodamine B assay; type: cell-based; conditions: hct-116, 48 h

| Structure (SMILES) | Activity |
| --- | --- |
| O=C(NCc1ccccc1)[C@@H]1CCC(=O)N1Cc1ccc(Cl)cc1Cl | Non-Toxic |
| O=C(NCc1ccccc1Cl)[C@@H]1CCC(=O)N1Cc1ccccc1Cl | Non-Toxic |
| O=C(NCc1ccccc1Cl)[C@@H]1CCC(=O)N1c1ccccc1 | Non-Toxic |

system: HT-29; test: Cytotoxicity against human HT-29 cells assessed as effect on cell growth at 10 uM incubated for 48 hrs by sulforhodamine B assay; type: cell-based; conditions: ht-29, 48 h

| Structure (SMILES) | Activity |
| --- | --- |
| O=C(NCc1ccccc1)[C@@H]1CCC(=O)N1Cc1ccc(Cl)cc1Cl | Non-Toxic |
| O=C(NCc1ccccc1Cl)[C@@H]1CCC(=O)N1Cc1ccccc1Cl | Non-Toxic |
| O=C(NCc1ccccc1Cl)[C@@H]1CCC(=O)N1c1ccccc1 | Non-Toxic |

system: SNB-19; test: Cytotoxicity against human SNB19 cells assessed as effect on cell growth at 10 uM incubated for 48 hrs by sulforhodamine B assay; type: cell-based; conditions: snb-19, 48 h

| Structure (SMILES) | Activity |
| --- | --- |
| O=C(NCc1ccccc1)[C@@H]1CCC(=O)N1Cc1ccc(Cl)cc1Cl | Non-Toxic |
| O=C(NCc1ccccc1Cl)[C@@H]1CCC(=O)N1Cc1ccccc1Cl | Non-Toxic |
| O=C(NCc1ccccc1Cl)[C@@H]1CCC(=O)N1c1ccccc1 | Non-Toxic |

system: SNB-75; test: Cytotoxicity against human SNB75 cells assessed as effect on cell growth at 10 uM incubated for 48 hrs by sulforhodamine B assay; type: cell-based; conditions: snb-75, 48 h

| Structure (SMILES) | Activity |
| --- | --- |
| O=C(NCc1ccccc1)[C@@H]1CCC(=O)N1Cc1ccc(Cl)cc1Cl | Non-Toxic |
| O=C(NCc1ccccc1Cl)[C@@H]1CCC(=O)N1Cc1ccccc1Cl | Non-Toxic |
| O=C(NCc1ccccc1Cl)[C@@H]1CCC(=O)N1c1ccccc1 | Non-Toxic |

system: U-251; test: Cytotoxicity against human U251 cells assessed as effect on cell growth at 10 uM incubated for 48 hrs by sulforhodamine B assay; type: cell-based; conditions: u-251, 48 h

| Structure (SMILES) | Activity |
| --- | --- |
| O=C(NCc1ccccc1)[C@@H]1CCC(=O)N1Cc1ccc(Cl)cc1Cl | Non-Toxic |
| O=C(NCc1ccccc1Cl)[C@@H]1CCC(=O)N1Cc1ccccc1Cl | Non-Toxic |
| O=C(NCc1ccccc1Cl)[C@@H]1CCC(=O)N1c1ccccc1 | Non-Toxic |

system: Malme-3M; test: Cytotoxicity against human MALME-3M cells assessed as effect on cell growth at 10 uM incubated for 48 hrs by sulforhodamine B assay; type: cell-based; conditions: not given

| Structure (SMILES) | Activity |
| --- | --- |
| O=C(NCc1ccccc1)[C@@H]1CCC(=O)N1Cc1ccc(Cl)cc1Cl | Non-Toxic |
| O=C(NCc1ccccc1Cl)[C@@H]1CCC(=O)N1Cc1ccccc1Cl | Non-Toxic |
| O=C(NCc1ccccc1Cl)[C@@H]1CCC(=O)N1c1ccccc1 | Non-Toxic |

system: UACC-62; test: Cytotoxicity against human UACC62 cells assessed as effect on cell growth at 10 uM incubated for 48 hrs by sulforhodamine B assay; type: cell-based; conditions: uacc-62, 48 h

| Structure (SMILES) | Activity |
| --- | --- |
| O=C(NCc1ccccc1)[C@@H]1CCC(=O)N1Cc1ccc(Cl)cc1Cl | Non-Toxic |
| O=C(NCc1ccccc1Cl)[C@@H]1CCC(=O)N1Cc1ccccc1Cl | Non-Toxic |
| O=C(NCc1ccccc1Cl)[C@@H]1CCC(=O)N1c1ccccc1 | Non-Toxic |

system: IGROV-1; test: Cytotoxicity against human IGROV1 cells assessed as effect on cell growth at 10 uM incubated for 48 hrs by sulforhodamine B assay; type: cell-based; conditions: igrov-1, 48 h

| Structure (SMILES) | Activity |
| --- | --- |
| O=C(NCc1ccccc1)[C@@H]1CCC(=O)N1Cc1ccc(Cl)cc1Cl | Non-Toxic |
| O=C(NCc1ccccc1Cl)[C@@H]1CCC(=O)N1Cc1ccccc1Cl | Non-Toxic |
| O=C(NCc1ccccc1Cl)[C@@H]1CCC(=O)N1c1ccccc1 | Non-Toxic |

system: OVCAR-8; test: Cytotoxicity against human OVCAR8 cells assessed as effect on cell growth at 10 uM incubated for 48 hrs by sulforhodamine B assay; type: cell-based; conditions: ovcar-8, 48 h

| Structure (SMILES) | Activity |
| --- | --- |
| O=C(NCc1ccccc1)[C@@H]1CCC(=O)N1Cc1ccc(Cl)cc1Cl | Non-Toxic |
| O=C(NCc1ccccc1Cl)[C@@H]1CCC(=O)N1Cc1ccccc1Cl | Non-Toxic |
| O=C(NCc1ccccc1Cl)[C@@H]1CCC(=O)N1c1ccccc1 | Non-Toxic |

system: NCI/ADR-RES; test: Cytotoxicity against human NCI/ADR-RES cells assessed as effect on cell growth at 10 uM incubated for 48 hrs by sulforhodamine B assay; type: cell-based; conditions: not given

| Structure (SMILES) | Activity |
| --- | --- |
| O=C(NCc1ccccc1)[C@@H]1CCC(=O)N1Cc1ccc(Cl)cc1Cl | Non-Toxic |
| O=C(NCc1ccccc1Cl)[C@@H]1CCC(=O)N1Cc1ccccc1Cl | Non-Toxic |
| O=C(NCc1ccccc1Cl)[C@@H]1CCC(=O)N1c1ccccc1 | Non-Toxic |

system: TK-10; test: Cytotoxicity against human TK10 cells assessed as effect on cell growth at 10 uM incubated for 48 hrs by sulforhodamine B assay; type: cell-based; conditions: tk-10, 48 h

| Structure (SMILES) | Activity |
| --- | --- |
| O=C(NCc1ccccc1)[C@@H]1CCC(=O)N1Cc1ccc(Cl)cc1Cl | Non-Toxic |
| O=C(NCc1ccccc1Cl)[C@@H]1CCC(=O)N1Cc1ccccc1Cl | Non-Toxic |
| O=C(NCc1ccccc1Cl)[C@@H]1CCC(=O)N1c1ccccc1 | Non-Toxic |

system: PC-3; test: Cytotoxicity against human PC3 cells assessed as effect on cell growth at 10 uM incubated for 48 hrs by sulforhodamine B assay; type: cell-based; conditions: pc-3, 48 h

| Structure (SMILES) | Activity |
| --- | --- |
| O=C(NCc1ccccc1)[C@@H]1CCC(=O)N1Cc1ccc(Cl)cc1Cl | Non-Toxic |
| O=C(NCc1ccccc1Cl)[C@@H]1CCC(=O)N1Cc1ccccc1Cl | Non-Toxic |
| O=C(NCc1ccccc1Cl)[C@@H]1CCC(=O)N1c1ccccc1 | Non-Toxic |

system: T47D; test: Cytotoxicity against human T47D cells assessed as effect on cell growth at 10 uM incubated for 48 hrs by sulforhodamine B assay; type: cell-based; conditions: not given

| Structure (SMILES) | Activity |
| --- | --- |
| O=C(NCc1ccccc1)[C@@H]1CCC(=O)N1Cc1ccc(Cl)cc1Cl | Non-Toxic |
| O=C(NCc1ccccc1Cl)[C@@H]1CCC(=O)N1Cc1ccccc1Cl | Non-Toxic |
| O=C(NCc1ccccc1Cl)[C@@H]1CCC(=O)N1c1ccccc1 | Non-Toxic |

system: MDA-MB-468; test: Cytotoxicity against human MDA-MB-468 cells assessed as effect on cell growth at 10 uM incubated for 48 hrs by sulforhodamine B assay; type: cell-based; conditions: mda-mb-468, 48 h

| Structure (SMILES) | Activity |
| --- | --- |
| O=C(NCc1ccccc1)[C@@H]1CCC(=O)N1Cc1ccc(Cl)cc1Cl | Non-Toxic |
| O=C(NCc1ccccc1Cl)[C@@H]1CCC(=O)N1Cc1ccccc1Cl | Non-Toxic |
| O=C(NCc1ccccc1Cl)[C@@H]1CCC(=O)N1c1ccccc1 | Non-Toxic |
